We go through ten molecules from US8765748B2, “Indazolyl, benzimidazolyl, benzotriazolyl substituted indolinone derivatives as kinase inhibitors useful in the treatment of cancer” (University Health Network, priority 2007, dated 2014).

For one assay, the target named is T1, human PLK4 (Homo sapiens, UniProt O00444).
T1 construct: amino terminal GST fusion of residues 1-391 of human PLK4; made in house; host or cells: E. coli
T1 sequence (O00444 1-391): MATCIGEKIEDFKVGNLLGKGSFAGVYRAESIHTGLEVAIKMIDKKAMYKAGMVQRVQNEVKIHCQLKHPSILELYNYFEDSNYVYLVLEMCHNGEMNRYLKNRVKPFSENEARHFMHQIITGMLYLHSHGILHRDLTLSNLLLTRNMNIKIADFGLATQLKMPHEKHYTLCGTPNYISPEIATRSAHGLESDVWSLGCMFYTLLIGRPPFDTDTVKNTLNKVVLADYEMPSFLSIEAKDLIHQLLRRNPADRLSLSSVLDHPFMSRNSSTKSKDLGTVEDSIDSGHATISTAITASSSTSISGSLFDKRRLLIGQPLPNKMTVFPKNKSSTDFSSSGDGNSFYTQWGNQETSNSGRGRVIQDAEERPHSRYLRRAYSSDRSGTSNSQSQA
In words: PLK4 Inhibition Assay (indirect ELISA). It counts as biochemical. The settings on record: 15 μM ATP, 4 nM GST-PLK4; read-out: PLK4 IC50 Ranges. Put shortly: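 Dephosphorylated (lambda phosphatase) GST-PLK4 activity read by indirect ELISA. Compounds were pre-incubated with enzyme for 15 minutes before ATP was added. IC50 came from a non-linear 4-point logistic fit.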
For orientation: In an ELISA, binding on a coated surface is turned into a signal by an enzyme label.

A further assay deals with T2, Aurora A (Homo sapiens, UniProt O14965).
T2 construct: purchased Invitrogen PV3612
T2 sequence (O14965 1-403): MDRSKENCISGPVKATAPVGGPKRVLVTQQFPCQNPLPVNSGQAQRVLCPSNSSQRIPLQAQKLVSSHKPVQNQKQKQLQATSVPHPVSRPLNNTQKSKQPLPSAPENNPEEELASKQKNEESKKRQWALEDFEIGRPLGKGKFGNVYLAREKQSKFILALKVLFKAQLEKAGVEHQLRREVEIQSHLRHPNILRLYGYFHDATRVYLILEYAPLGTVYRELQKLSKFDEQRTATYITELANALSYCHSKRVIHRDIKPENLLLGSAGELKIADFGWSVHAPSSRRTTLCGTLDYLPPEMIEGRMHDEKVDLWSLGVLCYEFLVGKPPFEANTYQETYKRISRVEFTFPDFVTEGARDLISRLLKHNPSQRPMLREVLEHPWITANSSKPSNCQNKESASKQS
The assay can be described thus: Aurora A Inhibition Assay (Z-Lyte). Type of assay: biochemical. The settings on record: for IC50: 20 μM ATP, 12 nM Aurora A, read-out: Aurora A IC50 Ranges. On the procedure: Aurora A inhibition was determined using the Z-Lyte assay kit from Invitrogen. The assay was performed using the recommended manufacturer's instructions with 20 μM ATP and 12 nM Aurora A (Invitrogen cat #PV3612). The % inhibition values were determined according to the manufacturer's directions and IC50 values were obtained using a non-linear 4 point logistic curve fit (XLfit4, IDBS)

For a further assay, the target named is T3, Aurora B (Homo sapiens, UniProt Q96GD4).
T3 construct: purchased Invitrogen PV3970
T3 sequence (Q96GD4 whole entry): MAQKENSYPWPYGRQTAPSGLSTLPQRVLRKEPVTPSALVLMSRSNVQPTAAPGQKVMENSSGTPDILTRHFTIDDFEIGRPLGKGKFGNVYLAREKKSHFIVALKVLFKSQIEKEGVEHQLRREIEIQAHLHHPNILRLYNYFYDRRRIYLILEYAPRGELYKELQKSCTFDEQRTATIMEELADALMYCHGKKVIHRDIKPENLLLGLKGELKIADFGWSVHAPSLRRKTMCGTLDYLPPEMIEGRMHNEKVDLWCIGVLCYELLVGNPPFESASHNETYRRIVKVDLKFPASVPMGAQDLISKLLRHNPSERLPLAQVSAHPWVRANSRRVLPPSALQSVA
The assay can be described thus: Aurora B Inhibition Assay (Z-Lyte). It counts as biochemical. Particulars: for IC50: 128 μM ATP, 28 nM Aurora B, read-out: Aurora B IC50 Ranges. On the procedure: Aurora B inhibition was determined using the Z-Lyte assay kit from Invitrogen. The assay was performed using the recommended manufacturer's instructions with 128 μM ATP and 28 nM Aurora B (Invitrogen cat #PV3970). The % inhibition values were determined according to the manufacturer's directions and IC50 values were obtained using a non-linear 4 point logistic curve fit (XLfit4, IDBS)

The target in another assay is T4, PLK3 (Homo sapiens, UniProt Q9H4B4).
T4 construct: purchased Invitrogen PV3812
T4 sequence (Q9H4B4 whole entry): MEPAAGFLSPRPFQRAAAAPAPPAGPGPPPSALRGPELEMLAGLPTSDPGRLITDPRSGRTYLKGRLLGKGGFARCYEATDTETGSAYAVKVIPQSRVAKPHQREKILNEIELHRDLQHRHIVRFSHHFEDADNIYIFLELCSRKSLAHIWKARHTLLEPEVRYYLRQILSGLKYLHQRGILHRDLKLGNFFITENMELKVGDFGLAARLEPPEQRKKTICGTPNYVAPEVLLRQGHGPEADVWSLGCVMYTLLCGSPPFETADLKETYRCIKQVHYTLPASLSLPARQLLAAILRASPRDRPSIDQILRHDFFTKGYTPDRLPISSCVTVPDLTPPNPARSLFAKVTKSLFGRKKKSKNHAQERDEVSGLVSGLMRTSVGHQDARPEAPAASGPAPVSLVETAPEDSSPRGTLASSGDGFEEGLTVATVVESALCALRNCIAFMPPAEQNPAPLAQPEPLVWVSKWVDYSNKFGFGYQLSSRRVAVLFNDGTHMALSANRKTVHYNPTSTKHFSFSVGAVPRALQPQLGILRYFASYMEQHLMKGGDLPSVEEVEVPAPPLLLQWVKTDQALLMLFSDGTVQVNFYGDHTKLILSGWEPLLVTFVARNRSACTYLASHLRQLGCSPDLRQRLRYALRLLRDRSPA
In words: PLK3 Inhibition Assay (Z-Lyte). Particulars: 100 μM ATP, 21 nM PLK3. Type of assay: biochemical. On the procedure:
PLK3 inhibition was determined using the Z-Lyte assay kit from Invitrogen (cat #PV3802). The assay was performed using the recommended manufacturer's instructions with 100 μM ATP and 21 nM PLK3 (Invitrogen cat #PV3812). The % inhibition values were determined according to the manufacturer's directions and IC50 values were obtained using a non-linear 4 point logistic curve fit (XLfit4, IDBS).

A further assay concerns the target T5, PLK1 (Homo sapiens, UniProt P53350).
T5 construct: purchased Invitrogen PV3501
The assay can be described thus: PLK1 Inhibition Assay (Z-Lyte). Type of assay: biochemical. Particulars: 25 μM ATP, 8 nM PLK1; read-out: PLK1 IC50 Ranges. On the procedure:
PLK1 inhibition was determined using the Z-Lyte assay kit from Invitrogen (cat #PV3802). […] The % inhibition values were determined according to the manufacturer's directions and IC50 values were obtained using a non-linear 4 point logistic curve fit (XLfit4, IDBS)

In a further assay the target is T6, PLK2 (Homo sapiens, UniProt Q9NYY3).
T6 construct: purchased Invitrogen PV4204
T6 sequence (Q9NYY3 whole entry): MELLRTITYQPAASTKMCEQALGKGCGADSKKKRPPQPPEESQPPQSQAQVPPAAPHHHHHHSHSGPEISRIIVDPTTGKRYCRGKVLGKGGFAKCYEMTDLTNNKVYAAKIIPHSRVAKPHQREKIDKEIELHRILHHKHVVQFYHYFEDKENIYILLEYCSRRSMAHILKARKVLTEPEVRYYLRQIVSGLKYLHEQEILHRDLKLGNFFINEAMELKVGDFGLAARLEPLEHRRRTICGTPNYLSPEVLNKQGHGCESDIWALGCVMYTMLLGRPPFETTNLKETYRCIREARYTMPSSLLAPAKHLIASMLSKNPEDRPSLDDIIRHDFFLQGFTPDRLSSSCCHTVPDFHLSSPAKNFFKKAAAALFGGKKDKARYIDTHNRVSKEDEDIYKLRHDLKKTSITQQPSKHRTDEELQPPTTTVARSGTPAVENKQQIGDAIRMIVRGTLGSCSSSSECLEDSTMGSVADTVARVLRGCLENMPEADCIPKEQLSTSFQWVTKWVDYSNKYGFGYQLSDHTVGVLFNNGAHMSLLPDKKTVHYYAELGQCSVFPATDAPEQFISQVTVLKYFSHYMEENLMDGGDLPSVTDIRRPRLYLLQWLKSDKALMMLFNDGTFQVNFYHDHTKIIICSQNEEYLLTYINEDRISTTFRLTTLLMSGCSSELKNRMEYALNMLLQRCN
The assay can be described thus: PLK2 Inhibition Assay (Z-Lyte). Type of assay: biochemical. The settings on record: for inhibition at 10 µM: 10 μM compound, read-out: PLK2 relative inhibition percentage at a dose of 10 μM. On the procedure: PLK2 inhibition was determined using the Z-Lyte assay kit from Invitrogen (cat #PV3802). The assay was performed using the recommended manufacturer's instructions with 60 μM ATP and 133 nM PLK2 (Invitrogen cat #PV4204). The % inhibition values were determined according to the manufacturer's directions and IC50 values were obtained using a non-linear 4 point logistic curve fit (XLfit4, IDBS)

The test system of assay [1] is MCF-7 luminal breast cancer cell line. The assay can be described thus: Cell growth inhibition, Sulforhodamine B assay (SRB). The settings on record: Homo sapiens, MCF7, 120 h; 5 days culture, SRB; read-out: Cell Line GI50 Range, MCF-7. Type of assay: cell-based. On the procedure:
(§1) Breast cancer cells (MCF-7, MDA-MB-468, HCC1954), colon cancer cells (SW620) and lung cancer cells (A549), together with human mammary epithelial primary cells (HMEC), were seeded (1000 to 4000 per 80 μl per well depending on the cell growth rate) into 96 well plates, 24 hours before compound overlay. Compounds were prepared as 10 mM stock solutions in 100% DMSO which were diluted with DMEM (Dulbecco's Modified Eagle's Medium) cell growth Medium (Invitrogen, Burlington, ON, Canada) containing 10% FBS (Fetal Bovine Serum) to concentrations ranging from 50 nM to 250 μM. Aliquots (20 μl) from each concentration were overlaid to 80 μl of the pre-seeded cells in the 96 well plates to make final concentrations of 10 nM to 50 μM. The cells were cultured for 5 days before the Sulforhodamine B assay (SRB) was performed to determine the compound's cell growth inhibition activity.
(§2) Sulforhodamine B (purchased from Sigma, Oakville, ON, Canada) is a water-soluble dye that binds to the basic amino acids of the cellular proteins. Thus, colorimetric measurement of the bound dye provides an estimate of the total protein mass that is related to the cell number. the cells are fixed in situ by gently aspirating off the culture media and adding 50 μl ice cold 10% Tri-chloroacetic Acid (TCA) per well and incubate at 4° C. for 30-60 min, The plates are washed with water five times and allowed to air dry for 5 min. Addition of 50 μl 0.4% (w/v) SRB solution in 1% (v/v) acetic acid to each well and incubatation for 30 min at RT completes the staining reaction. Following staining, plates are washed four times with 1% acetic acid to remove unbound dye and then allowed to air dry for 5 min. The stain is solubilized with 100 μl of 10 mM Tris pH10.5 per well. Absorbance is read at 570 nm.
(§3) The percentage (%) of relative growth inhibition was calculated by comparing to DMSO treated only cells (100%). GI50's were determined for compounds with cytotoxic activity. The GI50 was calculated using GraphPad PRISM software (GraphPad Software, Inc., San Diego, Calif., USA).

The subject of assay [2] is MDA-MB-468 basal breast cancer cell line. The assay is described as above. Particulars: Homo sapiens, MDA-MB-468, 120 h; 5 days culture, SRB; read-out: Cell Line GI50 Range, MDA-MB-468. Type of assay: cell-based. On the procedure:
as §1, §2, §3

The subject of the next assay is A549 lung cancer cells. Described as above. It counts as cell-based. Particulars: Homo sapiens, A549, 120 h, 5 days culture, read-out: Cell Line GI50 Range, A-549. On the procedure:
as §1, §2, §3

The test system of assay [3] is HCC1954 basal breast cancer cell line. The assay is described as above. Particulars: Homo sapiens, HCC1954, 120 h, 5 days culture, read-out: Cell Line GI50 Range, HCC-1954. It counts as cell-based. On the procedure: as §1, §2, §3
A further assay has as its system SW620 colon cancer cells. Described as above. Particulars: Homo sapiens, SW-620, 120 h, 5 days culture, read-out: Cell Line GI50 Range, SW-620. It counts as cell-based. On the procedure: as §1, §2, §3

Structures are written as SMILES.

A word on the IC50: it is the concentration at which inhibition is half-maximal. A word on the inhibition: it is the change of the read-out against control, counted positive when it falls. As usually defined, the GI50 is the concentration that inhibits growth by half.

T5 sequence (P53350 whole entry): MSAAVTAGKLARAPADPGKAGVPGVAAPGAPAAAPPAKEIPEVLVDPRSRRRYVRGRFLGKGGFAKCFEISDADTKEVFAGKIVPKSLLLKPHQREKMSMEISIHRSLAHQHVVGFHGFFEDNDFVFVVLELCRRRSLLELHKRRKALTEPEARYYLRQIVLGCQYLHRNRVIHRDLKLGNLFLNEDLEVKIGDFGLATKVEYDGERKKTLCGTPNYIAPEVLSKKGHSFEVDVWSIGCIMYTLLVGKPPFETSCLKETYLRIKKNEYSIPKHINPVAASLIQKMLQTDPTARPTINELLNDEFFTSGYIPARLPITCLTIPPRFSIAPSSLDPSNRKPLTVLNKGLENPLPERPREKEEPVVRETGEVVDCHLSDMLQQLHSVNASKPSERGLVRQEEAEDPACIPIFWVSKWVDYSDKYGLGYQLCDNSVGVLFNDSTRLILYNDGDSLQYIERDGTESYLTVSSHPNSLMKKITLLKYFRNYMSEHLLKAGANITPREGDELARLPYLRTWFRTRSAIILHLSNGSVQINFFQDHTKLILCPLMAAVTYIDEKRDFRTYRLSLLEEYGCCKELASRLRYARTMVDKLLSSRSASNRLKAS

Turning to `Cc1ccc2c(c1)/C(=C\c1ccc3c(/C=C/C(=O)N(C)CCN(C)C)n[nH]c3c1)C(=O)N2` [Example A125, (E and Z)—N-(2-(dimethylamino)ethyl)-N-methyl-3-(6-((E)-(5-methyl-2-oxoindolin-3-ylidene)methyl)-1H-indazol-3-yl)acrylamide], the results for the IC50 at human PLK4, at Aurora B and at PLK3 were < 5 µM, < 5 µM and > 0.5 µM, respectively. The inhibition at 10 µM on Aurora A (10 μM compound, read-out: Aurora A relative inhibition percentage at a dose of 10 μM) was > 50%.
In the case of `CC(=O)Nc1cccc2c1NC(=O)/C2=C/c1ccc2cn[nH]c2c1` [Example A49, (E)-N-(3-((1H-indazol-6-yl)methylene)-2-oxoindolin-7-yl)acetamide], the IC50 on human PLK4 is < 5 µM; at PLK1, > 50 µM; against PLK3, > 0.5 µM. Moreover, the inhibition at 10 µM at PLK2 was > 50%.
In the case of `Nc1ccc2c(c1)/C(=C\c1ccc3[nH]nnc3c1)C(=O)N2` [Example A2, (E)-3-((1H-benzo[d][1,2,3]triazol-5-yl)methylene)-5-aminoindolin-2-one], the IC50 at human PLK4 is < 5 µM; at PLK1 it was 5 to 50 µM; on Aurora A, < 5 µM; on Aurora B it was < 5 µM; at PLK3, > 0.5 µM. For the same molecule, the inhibition at 10 µM at PLK2 was < 50%. Further, the concentration for 50% growth inhibition (GI50) is > 50 µM in [1] and 5 to 20 µM in [2].
Regarding `COc1ccc2c(c1)C(=Cc1ccc3c(-c4cccc(-c5nnn[nH]5)c4)n[nH]c3c1)C(=O)N2` (mixture of isomers) [Example A153, (E and Z)-3-((3-(3-(1H-tetrazol-5-yl)phenyl)-1H-indazol-6-yl)methylene)-5-methoxyindolin-2-one], the IC50 on human PLK4 is < 5 µM; on Aurora A, < 5 µM; on Aurora B it was < 5 µM; at PLK3, > 0.5 µM.
With `COc1ccc2c(c1)/C(=C\c1ccc3c(C#Cc4cccnc4)n[nH]c3c1)C(=O)N2` [Example A148, (E)-5-methoxy-3-((3-(pyridin-3-ylethynyl)-1H-indazol-6-yl)methylene)indolin-2-one], the IC50 was < 5 µM at human PLK4, < 5 µM at Aurora B and > 0.5 µM against PLK3.
Turning to `O=C1Nc2ccccc2/C1=C\c1ccc2[nH]ncc2c1` [Example A6, (E)-3-((1H-indazol-5-yl)methylene)indolin-2-one], the IC50 at human PLK4 was < 5 µM; on PLK1, 5 to 50 µM; at PLK2 (60 μM ATP, 133 nM PLK2, read-out: PLK2 IC50 Ranges), < 5 µM; at Aurora A it was < 5 µM; on Aurora B it was < 5 µM; on PLK3 it was > 0.5 µM. Besides, the GI50 in [1] and in [2] was 5 to 20 µM each time.
As to `CN(C)c1ccc(C#Cc2n[nH]c3cc(C=C4C(=O)Nc5ccccc54)ccc23)cc1` (mixture of isomers) [Example A149, (E and Z)-3-((3-((4-(dimethylamino)phenyl)ethynyl)-1H-indazol-6-yl)methylene)indolin-2-one], the IC50 was < 5 µM at human PLK4, 5 to 50 µM at Aurora A, < 5 µM at Aurora B and > 0.5 µM against PLK3.
For `CC(C)NC(=O)Nc1ccc2c(c1)/C(=C\c1ccc3cn[nH]c3c1)C(=O)N2` [Example A26, (E)-1-(3-((1H-indazol-6-yl)methylene)-2-oxoindolin-5-yl)-3-isopropylurea], the IC50 is < 5 µM at human PLK4, 5 to 50 µM at PLK1, < 5 µM at Aurora A and > 0.5 µM on PLK3. In addition, the inhibition at 10 µM at PLK2 was < 50%; at Aurora B (10 μM compound, read-out: Aurora B relative inhibition percentage at a dose of 10 μM), < 50%.
Turning to `CC(C)c1ccc2c(c1)/C(=C\c1ccc3c(/C=C/c4ccncc4)n[nH]c3c1)C(=O)N2` [Example A127, (E)-5-isopropyl-3-((3-((E)-2-(pyridin-4-yl)vinyl)-1H-indazol-6-yl)methylene)indolin-2-one 2,2,2-trifluoroacetate], the IC50 on human PLK4 was < 5 µM; on Aurora A it was < 5 µM; on Aurora B, < 5 µM; on PLK3, > 0.5 µM. Further, the GI50 was 5 to 20 µM in the assay with A549 lung cancer cells; < 5 µM in assay [3]; < 5 µM in assay [1]; < 5 µM in assay [2]; < 5 µM with SW620 colon cancer cells.
Consider `CN1CCN(c2ncc(-c3n[nH]c4cc(C=C5C(=O)Nc6ccc(OC(F)(F)F)cc65)ccc34)cn2)CC1` [Example A152, (E & Z)-3-((3-(2-(4-methylpiperazin-1-yl)pyrimidin-5-yl)-1H-indazol-6-yl)methylene)-5-(trifluoromethoxy)indolin-2-one], for which the IC50 on human PLK4 is < 5 µM; at Aurora B, 5 to 50 µM; at PLK3, > 0.5 µM.
